Reference: EP2931723B1, “NEW BICYCLIC COMPOUNDS AND THEIR USE AS ANTIBACTERIAL AGENTS AND -LACTAMASE INHIBITORS” (Fedora Pharmaceuticals Inc., priority 2012, dated 2014)

Tests used:
E. coli JMI 10767 = experiment: MIC, antibacterial and synergistic activity; type: cell-based; settings: E. coli JMI 10767 (Wt); for MIC Aztreonam + inhibitor: Aztreonam + inhibitor at 4 µg/mL; for MIC Ceftazidime + inhibitor: Ceftazidime + inhibitor at 4 µg/mL
Protocol: (§1) In the Tables 10 - 12, compounds herein disclosed were tested in combination with various antibiotics against metallo β-lactamase producing bacteria. Table 3: Synergy of the inhibitor Ex. 1 (4 µg/mL) in combination with antibiotics

E. coli JMI 10768 = experiment: MIC, antibacterial and synergistic activity; type: cell-based; settings: E. coli JMI 10768 (CTX-M15 (Weak ESBL)); for MIC Aztreonam + inhibitor: Aztreonam + inhibitor at 4 µg/mL; for MIC Ceftazidime + inhibitor: Ceftazidime + inhibitor at 4 µg/mL; for MIC: Escherichia coli, JMI10768, substance alone
Protocol: as §1

E. coli JMI 10770 = experiment: MIC, antibacterial and synergistic activity; type: cell-based; settings: E. coli JMI 10770 (CTX-M15 (Hyper ESBL)); for MIC Aztreonam + inhibitor: Aztreonam + inhibitor at 4 µg/mL; for MIC Ceftazidime + inhibitor: Ceftazidime + inhibitor at 4 µg/mL; for MIC Meropenem + inhibitor: Meropenem + inhibitor at 4 µg/mL
Protocol: as §1

K. pneumo JMI 2673 = experiment: MIC, antibacterial and synergistic activity; type: cell-based; settings: K. pneumo JMI 2673 (CTX-M14 (ESBL)); for MIC Aztreonam + inhibitor: Aztreonam + inhibitor at 4 µg/mL; for MIC Ceftazidime + inhibitor: Ceftazidime + inhibitor at 4 µg/mL; for MIC Meropenem + inhibitor: Meropenem + inhibitor at 4 µg/mL
Method in brief: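 Antibacterial synergy was assessed by testing a β-lactamase inhibitor compound in combination with antibiotics. The inhibitor was held at a fixed concentration of 4 µg/mL, and the minimum inhibitory concentration of the partner antibiotic was determined in its presence.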

K. pneumo JMI 2674 = experiment: MIC, antibacterial and synergistic activity; type: cell-based; settings: K. pneumo JMI 2674 (CTX-M15 (ESBL)); for MIC Aztreonam + inhibitor: Aztreonam + inhibitor at 4 µg/mL; for MIC Ceftazidime + inhibitor: Ceftazidime + inhibitor at 4 µg/mL; for MIC Meropenem + inhibitor: Meropenem + inhibitor at 4 µg/mL
Method in brief: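 Antibacterial activity was assessed as minimum inhibitory concentrations against a β-lactamase-producing bacterial strain. Each test inhibitor was combined with an antibiotic, with the inhibitor held at a fixed 4 µg/mL, to determine whether it acted synergistically and restored the antibiotic's effect against the resistant organism.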

K. pneumo JMI 2699 = experiment: MIC, antibacterial and synergistic activity; type: cell-based; settings: K. pneumo JMI 2699 (VIM-1, CTX-M3); for MIC Aztreonam + inhibitor: Aztreonam + inhibitor at 4 µg/mL; for MIC Ceftazidime + inhibitor: Ceftazidime + inhibitor at 4 µg/mL; for MIC Meropenem + inhibitor: Meropenem + inhibitor at 4 µg/mL; for MIC: substance alone, read-out: MIC
Method in brief: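 Here the inhibitor, at a set 4 µg/mL, accompanies each antibiotic. MIC determination used MBL-positive bacteria.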

K. pneumo JMI 4088 = experiment: MIC, antibacterial and synergistic activity; type: cell-based; settings: K. pneumo JMI 4088 (KPC-3 (Cpase)); for MIC Aztreonam + inhibitor: Aztreonam + inhibitor at 4 µg/mL; for MIC Ceftazidime + inhibitor: Ceftazidime + inhibitor at 4 µg/mL; for MIC Meropenem + inhibitor: Meropenem + inhibitor at 4 µg/mL
Method in brief: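 The compound was tested for synergy by combining it with antibiotics and measuring minimum inhibitory concentrations against β-lactamase producing bacteria. The inhibitor was present at a fixed concentration of 4 µg/mL together with the partner antibiotic, and MIC values were recorded.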

K.pneumo JMI 4109 = experiment: MIC, antibacterial and synergistic activity; type: cell-based; settings: K.pneumo JMI 4109 (SHV-1, SHV-12); for MIC Aztreonam + inhibitor: Aztreonam + inhibitor at 4 µg/mL; for MIC Ceftazidime + inhibitor: Ceftazidime + inhibitor at 4 µg/mL; for MIC Meropenem + inhibitor: Meropenem + inhibitor at 4 µg/mL
Method in brief: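 Antibacterial synergy was assessed by pairing each inhibitor compound, at a constant concentration of 4 µg/mL, with β-lactam antibiotics. The combinations were run against bacterial strains that produce β-lactamases, and the readout was the minimum inhibitory concentration of the antibiotic in the presence of the inhibitor.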

P. aerug JMI 2686 = experiment: MIC, antibacterial and synergistic activity; type: cell-based; settings: P. aerug JMI 2686 (KPC-2 (Cpase)); for MIC Aztreonam + inhibitor: Aztreonam + inhibitor at 4 µg/mL; for MIC Ceftazidime + inhibitor: Ceftazidime + inhibitor at 4 µg/mL; for MIC Meropenem + inhibitor: Meropenem + inhibitor at 4 µg/mL
Method in brief: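 This antibacterial synergy assay measured the minimum inhibitory concentration of antibiotics combined with the disclosed inhibitor compounds. The inhibitor was held at 4 µg/mL throughout. The aim was to see whether the added compound strengthened the antibiotic's action against the tested bacteria.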

[1] = tested on: metallo β-lactamase producing bacteria; experiment: MIC in combination with various antibiotics against metallo β-lactamase producing bacteria (Tables 10-12); type: cell-based; settings: Enterobacter cloacae, agent alone
Protocol: In the Tables 10 - 12, compounds herein disclosed were tested in combination with various antibiotics against metallo β-lactamase producing bacteria.

CMY-2 = CMY-2 (Klebsiella pneumoniae, UniProt Q48434); experiment: β-lactamase inhibitory activity, spectrophotometric nitrocefin assay; type: biochemical; settings: nitrocefin as substrate
Protocol: (§2) The inhibitory activities of compounds herein disclosed against various enzymes were measured by spectrophotometric assay using […] and using nitrocefin as a substrate [J. Antimicrob. Chemother., 28, pp 775-776 (1991)] . The concentration of inhibitor (IC50) which inhibits by 50% the reaction of hydrolysis of nitrocefin by the enzyme is determined. […] Table 13 Test for β-lactamase Inhibitory Activity

CTX-M-9 = CTX-M-9 (Escherichia coli, UniProt Q9L5C8); experiment: as above; type: biochemical; settings: nitrocefin as substrate
Protocol: as §2

KPC-2 = KPC-2 (Klebsiella pneumoniae, UniProt Q9F663); experiment: as above; type: biochemical; settings: nitrocefin as substrate
Protocol: as §2

TEM-1 = TEM-1 (Escherichia coli, UniProt P62593); experiment: as above; type: biochemical; settings: nitrocefin as substrate
Protocol: as §2

Sequence of KPC-2 (Q9F663 25-293, looked up, species assumed): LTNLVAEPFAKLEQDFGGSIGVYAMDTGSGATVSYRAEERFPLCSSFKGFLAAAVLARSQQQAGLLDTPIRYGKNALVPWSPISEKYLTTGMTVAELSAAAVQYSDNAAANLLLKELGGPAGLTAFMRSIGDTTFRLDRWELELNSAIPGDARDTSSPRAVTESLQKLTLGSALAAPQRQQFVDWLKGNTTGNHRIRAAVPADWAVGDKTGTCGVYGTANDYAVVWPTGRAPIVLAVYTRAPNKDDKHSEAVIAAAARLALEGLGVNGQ
Sequence of CMY-2 (Q48434 21-381, species assumed): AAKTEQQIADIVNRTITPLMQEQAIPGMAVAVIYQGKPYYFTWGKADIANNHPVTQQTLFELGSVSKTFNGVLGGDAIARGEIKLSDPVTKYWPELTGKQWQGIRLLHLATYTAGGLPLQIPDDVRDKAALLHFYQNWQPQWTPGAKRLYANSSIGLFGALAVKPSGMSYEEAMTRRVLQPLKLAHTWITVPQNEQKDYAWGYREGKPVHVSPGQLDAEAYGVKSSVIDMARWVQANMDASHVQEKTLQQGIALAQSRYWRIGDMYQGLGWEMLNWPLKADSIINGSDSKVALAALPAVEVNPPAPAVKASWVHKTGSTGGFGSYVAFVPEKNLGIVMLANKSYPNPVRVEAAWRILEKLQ
Sequence of CTX-M-9 (Q9L5C8 29-291): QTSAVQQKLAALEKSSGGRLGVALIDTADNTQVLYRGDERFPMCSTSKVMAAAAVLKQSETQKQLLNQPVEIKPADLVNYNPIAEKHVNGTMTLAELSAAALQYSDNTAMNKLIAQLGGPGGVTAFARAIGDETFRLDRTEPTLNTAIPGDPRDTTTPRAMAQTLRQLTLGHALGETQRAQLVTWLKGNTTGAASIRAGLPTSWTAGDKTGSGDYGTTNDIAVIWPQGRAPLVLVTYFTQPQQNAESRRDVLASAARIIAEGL
Sequence of TEM-1 (P62593 24-286 limits assumed): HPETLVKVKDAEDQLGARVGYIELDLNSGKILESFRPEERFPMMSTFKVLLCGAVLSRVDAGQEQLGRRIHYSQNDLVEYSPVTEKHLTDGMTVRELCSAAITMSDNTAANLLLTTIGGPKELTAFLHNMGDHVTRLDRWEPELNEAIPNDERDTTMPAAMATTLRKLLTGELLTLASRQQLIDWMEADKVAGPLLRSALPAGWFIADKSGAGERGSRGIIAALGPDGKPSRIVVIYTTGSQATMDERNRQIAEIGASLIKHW

SMILES: CC(=O)NNC(=O)[C@@H]1CC[C@@H]2CN1C(=O)N2OS(=O)(=O)O [Ex. 5, (2S,5R)-N'-acetyl-7-oxo-6-(sulfooxy)-1,6-diazabicyclo[3.2.1]octane-2-carbohydrazide]
- MIC Aztreonam + inhibitor (E. coli JMI 10767): ≤0.062 µg/mL
- MIC Ceftazidime + inhibitor (E. coli JMI 10767): ≤0.25 µg/mL
- MIC Aztreonam + inhibitor (E. coli JMI 10768): ≤0.062 µg/mL
- MIC Ceftazidime + inhibitor (E. coli JMI 10768): ≤0.25 µg/mL
- MIC (E. coli JMI 10768): 8 µg/mL
- MIC Aztreonam + inhibitor (E. coli JMI 10770): ≤0.062 µg/mL
- MIC Ceftazidime + inhibitor (E. coli JMI 10770): ≤0.25 µg/mL
- MIC Meropenem + inhibitor (E. coli JMI 10770): ≤0.031 µg/mL
- MIC Aztreonam + inhibitor (K. pneumo JMI 2673): ≤0.062 µg/mL
- MIC Ceftazidime + inhibitor (K. pneumo JMI 2673): ≤0.25 µg/mL
- MIC Meropenem + inhibitor (K. pneumo JMI 2673): ≤0.031 µg/mL
- MIC Aztreonam + inhibitor (K. pneumo JMI 2674): 0.125 µg/mL
- MIC Ceftazidime + inhibitor (K. pneumo JMI 2674): ≤0.25 µg/mL
- MIC Meropenem + inhibitor (K. pneumo JMI 2674): 0.062 µg/mL
- MIC Aztreonam + inhibitor (K. pneumo JMI 2699): ≤0.062 µg/mL
- MIC Ceftazidime + inhibitor (K. pneumo JMI 2699): 2 µg/mL
- MIC Meropenem + inhibitor (K. pneumo JMI 2699): ≤0.031 µg/mL
- MIC (K. pneumo JMI 2699): > 16 µg/mL
- MIC Aztreonam + inhibitor (K. pneumo JMI 4088): 0.25 µg/mL
- MIC Ceftazidime + inhibitor (K. pneumo JMI 4088): ≤0.25 µg/mL
- MIC Meropenem + inhibitor (K. pneumo JMI 4088): 0.125 µg/mL
- MIC Aztreonam + inhibitor (K.pneumo JMI 4109): ≤0.062 µg/mL
- MIC Ceftazidime + inhibitor (K.pneumo JMI 4109): ≤0.25 µg/mL
- MIC Meropenem + inhibitor (K.pneumo JMI 4109): ≤0.031 µg/mL
- MIC Aztreonam + inhibitor (P. aerug JMI 2686): >4 µg/mL
- MIC Ceftazidime + inhibitor (P. aerug JMI 2686): >16 µg/mL
- MIC Meropenem + inhibitor (P. aerug JMI 2686): >2 µg/mL
- MIC ([1]; Isolate No 4, Enzyme VIM-6): 64
- MIC ([1]; Isolate No 10, Enzyme IMP-26): 64
- IC50 (CMY-2): 0.008 ± 0.001 µM
- IC50 (CTX-M-9): 0.327 ± 0.02 µM
- IC50 (KPC-2): 0.091 ± 0.009 µM
- IC50 (TEM-1): 0.052 ± 0.004 µM

SMILES: NCCONC(=O)[C@@H]1CC[C@@H]2CN1C(=O)N2OS(=O)(=O)O [Ex. 3, (2S,5R)-N-(2-Aminoethoxy)-7-oxo-6-(sulfooxy)-1,6-diazabicyclo[3.2.1]octane-2-carboxamide]
- MIC Aztreonam + inhibitor (E. coli JMI 10767): ≤0.062 µg/mL
- MIC Ceftazidime + inhibitor (E. coli JMI 10767): ≤0.25 µg/mL
- MIC Aztreonam + inhibitor (E. coli JMI 10768): ≤0.062 µg/mL
- MIC Ceftazidime + inhibitor (E. coli JMI 10768): ≤0.25 µg/mL
- MIC (E. coli JMI 10768): 4 µg/mL
- MIC Aztreonam + inhibitor (E. coli JMI 10770): 8 µg/mL
- MIC Ceftazidime + inhibitor (E. coli JMI 10770): 2 µg/mL
- MIC Meropenem + inhibitor (E. coli JMI 10770): 0.062 µg/mL
- MIC Aztreonam + inhibitor (K. pneumo JMI 2673): 0.125 µg/mL
- MIC Ceftazidime + inhibitor (K. pneumo JMI 2673): ≤0.25 µg/mL
- MIC Meropenem + inhibitor (K. pneumo JMI 2673): ≤0.0312 µg/mL
- MIC Aztreonam + inhibitor (K. pneumo JMI 2674): 0.5 µg/mL
- MIC Ceftazidime + inhibitor (K. pneumo JMI 2674): ≤0.25 µg/mL
- MIC Meropenem + inhibitor (K. pneumo JMI 2674): 0.125 µg/mL
- MIC Aztreonam + inhibitor (K. pneumo JMI 2699): ≤0.062 µg/mL
- MIC Ceftazidime + inhibitor (K. pneumo JMI 2699): ≤0.25 µg/mL
- MIC Meropenem + inhibitor (K. pneumo JMI 2699): ≤0.0312 µg/mL
- MIC (K. pneumo JMI 2699): 4 µg/mL
- MIC Aztreonam + inhibitor (K. pneumo JMI 4088): 1 µg/mL
- MIC Ceftazidime + inhibitor (K. pneumo JMI 4088): ≤0.25 µg/mL
- MIC Meropenem + inhibitor (K. pneumo JMI 4088): 0.25 µg/mL
- MIC Aztreonam + inhibitor (K.pneumo JMI 4109): ≤0.062 µg/mL
- MIC Ceftazidime + inhibitor (K.pneumo JMI 4109): ≤0.25 µg/mL
- MIC Meropenem + inhibitor (K.pneumo JMI 4109): ≤0.0312 µg/mL
- MIC Aztreonam + inhibitor (P. aerug JMI 2686): >4 µg/mL
- MIC Ceftazidime + inhibitor (P. aerug JMI 2686): 16 µg/mL
- MIC Meropenem + inhibitor (P. aerug JMI 2686): >2 µg/mL
